Source: patent publication US9474730B2, “Methods and compositions for use with K-ras mediated disorders” (Board of Regents of the University of Texas System, priority 2012, dated 2016)
Where a name gives a salt, the structure may show the parent alone.

Legend:
[1] = molecular target: T1, GFP-K-rasG12V in MDCK or BHK cells (Homo sapiens, UniProt P01116, G12V); experiment: Confocal fluorescence microscopy of GFP-tagged full length constitutively active Ras (G12V); type: cell-based, canine (MDCK), hamster (BHK); settings: 48 h
T1 construct: MDCK and BHK cells expressing GFP-tagged full length constitutively active Ras (G12V) proteins; expressed in transfected cells
Description: FIG. 2: Illustrates that fendiline HCl mislocalizes GFP-K-rasG12V but not GFP-H-rasG12V: (A) MDCK or BHK [Baby Hamster Kidney] cells expressing GFP-K-rasG12V or GFP-H-rasG12V were grown on cover slips, treated with vehicle or fendiline HCl (4 μg/mL for MDCK and 6 μg/mL for BHK) for 48 h and fixed with paraformaldehyde. Cells were imaged using a confocal microscope. (B) BHK cells expressing GFP-K-rasG12V or GFP-H-rasG12V (green) were treated with vehicle or fendiline HCl (6 μg/mL) for 48 h. Following treatment, cells were fixed and immuno-labeled with antibodies against PDI (ER marker-red) or p58 (golgi marker-red). Colocalization between GFP and the respective marker protein is shown in yellow. Shown are representative images from 3 independent experiments wherein experimentation was performed in accordance with principles described herein;
Cells were further analyzed using fluorescence microscopy, where cells were grown on coverslips, treated with 1% vehicle (DMSO) or varying concentrations of selected compounds for 48 h, and fixed with 4% paraformaldehyde. The coverslips were mounted in Mowiol® and visualized by confocal microscopy (Nikon A1) using a 60× objective. The cells were immuno-staining, where cells were fixed, permeabilized in 0.1% Triton in PBS for 30 min, and blocked with 0.2% bovine serum albumin and 0.2% fish skin gelatin in PBS for 30 min. […]

[2] = molecular target: T1, GFP-K-rasG12V in MDCK or BHK cells; experiment: Cellular fractionation (P100/S100) with quantitative Western blotting, GFP-K-rasG12V; type: cell-based, canine (MDCK), hamster (BHK); settings: 4 μg/mL for MDCK and 6 μg/mL for BHK, 48 hours, vs vehicle
Description: Following treatment, membrane (P100) and soluble (S100) protein fractions were prepared and analyzed by quantitative Western blotting.
Preparation of whole-cell lysates: cells were lysed in Buffer B (50 mM Tris [pH 7.5], 75 mM NaCl, 25 mM NaF, 5 mM MgCl2, 5 mM EGTA, 1 mM dithiothreitol, 100 μM NaVO4, 1% Nonidet P-40 plus protease inhibitors). Cellular fractionation: cells were incubated in Buffer A (10 mm Tris-HCl, pH 7.5, 25 mm NaF, 5 mm MgCl2, 1 mm EGTA, 1 mm dithiothreitol, 100 μm NaVO4 plus protease inhibitors) for 30 minutes on ice and lysed by passing through a 27 G needle 30 times. The post nuclear supernatant was centrifuged at 100,000 g for 30 minutes and the membrane pellet was resuspended in Buffer A containing 1% Triton X-100.
SDS-PAGE and Western blotting with the specified antibody were performed using 20 μg of each whole cell lysate/P100 fraction and volumes of S100 equal to that of the corresponding P100. Signal was detected by enhanced chemiluminescence (SuperSignal; Pierce, Thermo Fisher Scientific, Rockford, Ill.) and imaged by FluorChemQ (Alpha Inotech, San Leandro, Calif., USA). Quantification of intensities was performed using FluorChemQ software.

[3] = tested on: Raf kinase activity in BHK cells stably expressing K-rasG12V; experiment: Raf kinase assay on membrane fractions of treated cells (coupled MEK/ERK assay); type: cell-based, hamster; settings: 6 μg/mL, 48 h; phosphorylation of recombinant ERK substrate
Description: FIG. 5: Illustrates that fendiline HCl inhibits Raf kinase activity and signaling downstream of oncogenic K-ras: BHK cells stably expressing K-rasG12V were treated with vehicle or fendiline HCl (6 μg/mL) for 48 h. (A) Raf kinase activity in membrane fractions prepared from the cells was measured in a coupled […] kinase assay. Data is shown as mean±SEM from 3 independent experiments. (B) ppMEK and ppERK in soluble protein fraction and pAkt levels in membrane protein fraction were measured by quantitative Western blotting. Actin and Akt were used as loading controls for soluble and membrane fractions, respectively. A representative blots are shown. Data is shown as mean±SEM from 3-4 independent experiments. Statistical significance was calculated using one way ANOVA and Student's T-test. (*=p<0.05), wherein experimentation was performed in accordance with principles described herein;
Membrane (P100) fractions were prepared from BHK or MDCK cells were dissolved in Buffer A containing 1% TritonX100. Solubilized P100 fractions were incubated with combinations of recombinant MEK and ERK in the presence of Mg^2+-ATP (40 mM and 0.5 mM, respectively) After 30 min at 30° C. with vigorous shaking, the pMEK and ppERK levels were determined by quantitative Western blotting.

CC(NCCC(c1ccccc1)c1ccccc1)c1ccccc1 (stereo not shown) [fendiline HCl]
localization of GFP-K-rasG12V relative to ER (PDI) and Golgi (p58) markers ([1]; BHK cells, 6 μg/mL, immunofluorescence): partially mislocalizes to the ER and golgi | inhibition of plasma membrane localization, K isoform compared to H and N ([1]; GFP-tagged full length Ras (G12V), 4 μg/mL for MDCK and 6 μg/mL for BHK): more potent inhibitor of plasma membrane localization of the K isoform as compared to H (FIG. 2A) and N | soluble fraction of GFP-K-rasG12V [2]: increases the soluble fraction of GFP-K-rasG12V | reduction of the amount of active Raf compared to vehicle-treated control [3]: approximately 60%
